Results taken from EP1734031A1, “NOVEL 2-(ALPHA-N-PENTANONYL)BENZOETES, THEIR PREPARATION AND USE” (priority 2004, dated 2005).
“And” between values parts separate entries of the source, which are not always exact repeats. Identical values can stand only once.

How the values were obtained:
[1] = tested on: model rats of middle cerebral artery thrombosis (MCAT); assay: Effects on neural symptoms of MCAT rats (behavioral score); type: in vivo, SD rats; details: for Scores 6 hours: 6 hours after operation; for Scores 6 hours / Scores 24 hours: full mark 4; for Scores 24 hours: 24 hours after operation; for % inhibition at hour 24 / alleviation on neural symptoms at 24 hours after the operation (in words): vs. model group; for alleviation on neural symptoms at 24 hours after the operation (in words): 50 mg/kg, P<0.01 or P<0.05
[2] = tested on: model rats of middle cerebral artery thrombosis (MCAT); assay: Effects on cerebral infarct area of MCAT rats (TTC staining); type: in vivo, SD rats; details: for cerebral infarct compared with the model group (in words): 50 mg/kg, P<0.05
[3] = tested on: thrombosis of artery-vein bypass in rats; assay: Effects on thrombosis of artery-vein bypass in rats; type: in vivo, SD rats; details: for Dry-weight of thrombus / Wet-weight of thrombus: once per day for 3 days; for Inhibition (dry-weight of thrombus) / Inhibition (wet-weight of thrombus): vs. thrombus model group
in vivo = details: mouse, po; for LD50 at 7 days: both, ICR
[4] = Stability of aqueous solution (decomposed products by HPLC); type: physicochemical; details: aqueous solution 0.2 mg/ml, exposed to water for 24 hours
[5] = Thermal stability (purity by HPLC); details: 10 days at 60°C
Protocol: Tests were conducted for 10 days at 60°C in accordance with the testing method as described in Pharmacopoeia of P.R. China, 2000 ed., appendix XIX C of part two, "Guideline for testing the stability of medicament: method for testing thermal stability". The purity was determined in accordance with the test described in Pharmacopoeia of P.R. China, 2000 ed., appendix VD of part two, by using HPLC method, C18 column, mobile phase of acetonitrile:0.02M sodium dihydrogen phosphate = 40:60, detecting wavelength of 230 nm, flow rate of 1 ml/min.

[6] = Stability to light (purity by HPLC); details: light test, 10 days
Protocol: Tests were conducted for 10 days in accordance with the testing method as described in Pharmacopoeia of P.R. China, 2000 ed., appendix XIX C of part two, "Guideline for testing the stability of medicament: method for testing stability to light". The purity was determined in accordance with the test described in Pharmacopoeia of P.R. China, 2000 ed., appendix VD of part two, by using HPLC method, C18 column, mobile phase of acetonitrile:0.02M sodium dihydrogen phosphate = 40:60, detecting wavelength of 230 nm, flow rate of 1 ml/min.

[7] = 50 mg/kg by gavage, 24 hours after operation
[8] = 50 mg/kg by gavage, vs. model group
[9] = 100 mg/kg by gavage, 24 hours after operation
[10] = 100 mg/kg by gavage, vs. model group
[11] = 200 mg/kg by gavage, 24 hours after operation
[12] = 200 mg/kg by gavage, vs. model group

| SMILES | Scores 6 hours ([1]; 50 mg/kg by gavage) | Scores 24 hours ([1]; 50 mg/kg by gavage) | % inhibition at hour 24 ([1]; 50 mg/kg by gavage) | Scores 6 hours ([1]; 100 mg/kg by gavage) | Scores 24 hours ([1]; 100 mg/kg by gavage) | % inhibition at hour 24 ([1]; 100 mg/kg by gavage) | Scores 6 hours ([1]; 200 mg/kg by gavage) | Scores 24 hours ([1]; 200 mg/kg by gavage) | % inhibition at hour 24 ([1]; 200 mg/kg by gavage) | Dry-weight of thrombus ([3]; 50 mg/kg by gavage) | Wet-weight of thrombus ([3]; 50 mg/kg by gavage) | Inhibition (dry-weight of thrombus) ([3]; 50 mg/kg) | Inhibition (wet-weight of thrombus) ([3]; 50 mg/kg) | alleviation on neural symptoms at 24 hours after the operation (in words) [1] | Cerebral infarct tissue weight/total brain weight [2, 7] | Inhibition (cerebral infarct) [2, 8] | Cerebral infarct tissue weight/total brain weight [2, 9] | Inhibition (cerebral infarct) [2, 10] | Cerebral infarct tissue weight/total brain weight [2, 11] | Inhibition (cerebral infarct) [2, 12] | other results |
| --- | --- | --- | --- | --- | --- | --- | --- | --- | --- | --- | --- | --- | --- | --- | --- | --- | --- | --- | --- | --- | --- |
| CCC/C=C1/OC(=O)c2ccccc21 [3-n-butenylphthalide] | 3.50±0.53 | 3.40±0.52 | 6.59% | 3.36±0.81 | 2.91±0.70 | 21.98% | 3.36±0.67 | 3.00±0.63 | 19.57% | 28.6 ± 9.6 mg | 169.9 ± 28.8 mg | 24.74% | 19.59% |  |  |  |  |  |  |  | Cerebral infarct tissue weight/total brain weight ([2]; rat, in vivo): 5.90±1.50% and 5.49±2.14 %; Inhibition (cerebral infarct) ([2]; rat, in vivo): 20.38% and 28.84% and 27.86%; Dry-weight of thrombus ([3]; 100 mg/kg by gavage): 22.9 ± 11.9 mg; Wet-weight of thrombus ([3]; 100 mg/kg by gavage): 137.5 ± 47.4 mg; Inhibition (dry-weight of thrombus) ([3]; 100 mg/kg): 39.74%; Inhibition (wet-weight of thrombus) ([3]; 100 mg/kg): 34.93%; Dry-weight of thrombus ([3]; 200 mg/kg by gavage): 24.9 ± 12.3 mg; Wet-weight of thrombus ([3]; 200 mg/kg by gavage): 141.6 ± 41.2 mg; Inhibition (dry-weight of thrombus) ([3]; 200 mg/kg): 34.47%; Inhibition (wet-weight of thrombus) ([3]; 200 mg/kg): 32.99%; LD50 at 168 h (in vivo): 2570 mg/kg |
| CCCCC(=O)c1ccccc1C(=O)[O-].[Na+] [Sodium 2-(α-n-pentanonyl)benzoate, sodium 2-(α-n-pentanonyl)benzoate] | 3.40±0.70 | 3.00±0.67 | 17.58% | 3.10±0.74 | 2.80±0.79 | 24.93% | 3.27±0.65 | 2.82±0.40 | 24.40% | 26.2 ± 9.7 mg | 138.8 ± 41.1 mg | 31.05% | 34.31% | significantly alleviation | 5.26±2.26 % | 29.01% | 4.99±1.83 % | 37.16% | 5.19±2.40 % | 31.80% | decomposed product [4]: no decomposed product; cerebral infarct compared with the model group (in words) [2]: significantly reduced; Dry-weight of thrombus ([3]; 100 mg/kg by gavage): 19.7 ± 7.8 mg; Wet-weight of thrombus ([3]; 100 mg/kg by gavage): 115.4 ± 42.3 mg; Inhibition (dry-weight of thrombus) ([3]; 100 mg/kg): 48.16%; Inhibition (wet-weight of thrombus) ([3]; 100 mg/kg): 45.39%; Dry-weight of thrombus ([3]; 200 mg/kg by gavage): 22.4 ± 10.1 mg; Wet-weight of thrombus ([3]; 200 mg/kg by gavage): 131.1 ± 48.0 mg; Inhibition (dry-weight of thrombus) ([3]; 200 mg/kg): 41.05%; Inhibition (wet-weight of thrombus) ([3]; 200 mg/kg): 37.96%; LD50 at 7 days (in vivo): 2650 mg/kg; decomposed product (thermal stability) [5]: no decomposed product; decomposed product (stability to light) [6]: no decomposed product |
| CCCCC(=O)c1ccccc1C(=O)[O-].[K+] [Potassium 2-(α-n-pentanonyl)benzoate, potassium 2-(α-n-pentanonyl)benzoate] | 3.27±0.79 | 2.91±0.70 | 20.05% | 3.36±0.67 | 2.82±0.75 | 24.40% | 3.20±0.63 | 2.10 ± 0.32 s | 43.70% | 38.3 ± 15.4 mg | 208.8 ± 45.3 mg | 25.34% | 19.44% | significantly alleviation | 5.63±1.52 % | 24.02% | 5.09±2.04 % | 35.89% | 4.38±1.54 % | 42.44% | decomposed product [4]: no decomposed product; cerebral infarct compared with the model group (in words) [2]: significantly reduced; Dry-weight of thrombus ([3]; 100 mg/kg by gavage): 35.6 ± 14.0 mg; Wet-weight of thrombus ([3]; 100 mg/kg by gavage): 192.6 ± 41.2 mg; Inhibition (dry-weight of thrombus) ([3]; 100 mg/kg): 30.60%; Inhibition (wet-weight of thrombus) ([3]; 100 mg/kg): 25.69%; Dry-weight of thrombus ([3]; 200 mg/kg by gavage): 28.3 ± 16.3 mg; Wet-weight of thrombus ([3]; 200 mg/kg by gavage): 157.0 ± 51.4 mg; Inhibition (dry-weight of thrombus) ([3]; 200 mg/kg): 44.8%; Inhibition (wet-weight of thrombus) ([3]; 200 mg/kg): 39.43%; Inhibition (dry-weight of thrombus) ([3]; 200 mg/kg, listed as potassium 2-(α-n-pentanonyl)benzoate): 44.83%; LD50 at 7 days (in vivo): 2720 mg/kg; decomposed product (thermal stability) [5]: no decomposed product; decomposed product (stability to light) [6]: no decomposed product |
| CCCCC(O)c1ccccc1C(=O)O (stereo not drawn) [Calcium 2-(α-hydroxypentyl)benzoate] | 3.45±0.52 | 3.36±0.50 | 7.69% | 3.55±0.52 | 3.09±0.70 | 17.16% | 3.45±0.52 | 2.91±0.54 | 21.98% |  |  |  |  |  | 6.39±2.33% | 13.77% | 5.82±1.90 % | 26.70% | 5.41±1.77 % | 28.91% |  |
| CCCCC(O)c1ccccc1C(=O)O (stereo not drawn) [N,N'-dibenzylethylenediamine 2-(α-hydroxypentyl)benzoate] [listing 1 of 2 here] |  |  |  |  |  |  |  |  |  |  |  |  |  |  |  |  |  |  |  |  | LD50 at 168 h (in vivo): 2810 mg/kg |
| CCCCC1OC(=O)c2ccccc21 (racemic) [DL-3-n-butylphthalide] | 3.36±0.81 | 3.09±0.54 | 15.11% | 3.36±0.50 | 3.09±0.70 | 17.16% | 3.36±0.67 | 3.00±0.89 | 19.57% |  |  |  |  | significantly alleviation | 5.66±2.81% | 23.62% | 5.81±1.49 % | 26.83% | 5.52±1.78 % | 27.46% | LD50 at 168 h (in vivo): 2190 mg/kg |
| CCCCC(O)c1ccccc1C(=O)O (stereo not drawn) [N,N'-dibenzylethylenediamine 2-(α-hydroxypentyl)benzoate] [listing 2 of 2 here] |  | 3.09±0.54 | 15.11% |  | 2.91±0.70 |  | 3.36±0.67 | 2.82±0.87 | 24.40% |  |  |  |  | significantly alleviation | 5.85±2.32% | 21.05% | 5.50±1.82 % | 30.73% | 5.09±2.14 % | 33.11% |  |
